Laboratory results published in US20230027066A1 (Urovant Sciences GmbH, priority 2019, published 2023).

System: men and women with overactive bladder
Assay: Phase 3 study of vibegron 75 mg vs placebo and tolterodine ER 4 mg, 12 weeks, efficacy (voiding and urine volume diary)
Type: in vivo, human
Method: Enrollment of patients included individuals with OAB Wet (those with UUI, the involuntary loss of urine accompanied by urgency) and OAB Dry (those without UUI). A total of 1,518 patients were randomized across 215 study sites into one of three groups for a 12-week treatment period.
The study consisted of a Screening Period (1 to 5 weeks), a single-blind Run-in Period (2 weeks), a randomized double-blind Treatment Period (12 weeks), and a Follow-up Period (4 weeks).
Tolterodine ER 4 mg was the active control. […] Between the Baseline and Week 12 Visits, patients had study assessments at Week 4 and Week 8.
The Patient Voiding Diary was used by participants (via the eDiary or paper Diary) to record the frequency of daily OAB symptoms including all micturitions, urgency, incontinence, and main reason for incontinence by selecting the respective box for each symptom occurring during the course of a given day and night.
Urine volume data were collected separately by patients using the Urine Volume component of the eDiary, or the paper Urine Volume Chart. The Urine Volume Chart is a tool used in clinical practice and clinical investigation to assess voiding functions over a 24-hour period and is regarded as a useful instrument in the investigation of patients with voiding symptoms. Urine volume may be collected during any one (1) of the 7 Diary Days prior to the visit, and it should be recorded for ˜24 hours starting from the time the patient gets up for the day and continues until the time the patient gets up for the day on the next day.
For the purpose of this study, the number of micturitions was defined as the number of times a patient has voided in the toilet as indicated on the Patient Voiding Diary. Average daily micturitions were calculated using the daily entries in the Patient Voiding Diary, which was completed over the 7 days prior to each study visit. Average daily number of micturitions were calculated as the total number of micturitions that occurred on a Complete Diary Day divided by the number of Complete Diary Days in the Patient Voiding Diary. A complete diary day required confirmation by the patient in the Patient Voiding Diary that all voids and leakages had been recorded for the diary day. Baseline was defined as the average number of micturitions occurring during the last evaluable diary prior to the Baseline Visit.
The number of UUI episodes was defined as the number of times a patient had checked “urge” as the reason for accidental urine leakage. Average daily UUI episodes at each study visit were calculated in the same manner as described above for the micturition endpoint. The UUI endpoint were analyzed using only OAB Wet patients.
For the analysis of the co-primary endpoints (change from baseline in average number of daily micturitions at Week 12 and change from baseline in average number of daily urge urinary incontinence episodes at Week 12, and placebo adjustment of each), a mixed model for repeated measure (MMRM) with restricted maximum likelihood estimation was used. This model corrects for dropout and accounts for the fact that measurements taken on the same patient over time tend to be correlated by using all available information on patients within the same covariate set to derive an estimate of the treatment effect for a dropout-free population. The analysis model for each efficacy endpoint includes terms for treatment, visit, OAB Type (Wet vs Dry), Sex (Female vs Male), Region (US vs Rest of World), baseline score, and interaction of visit by treatment.
Primary inferences were drawn from treatment differences for the changes from baseline derived from the MMRM models at Week 12. As part of secondary objectives, the treatment differences for each post baseline visit were also derived using the same MMRM model. […]

[1] = Week 8, events of Events/Censored
[2] = Week 12, Age ≥ 75 years (posthoc analysis)
[3] = Week 12, No Prior ACH Use in last 12 Mo.
[4] = Week 12, No Prior B3 Agonist Use in last 12 Mo.
[5] = Week 12, Prior ACH Use in last 12 Mo.
[6] = Week 12, Prior B3 Agonist Use in last 12 Mo.

Compound: Cc1ccc(O)c([C@H](CCN(C(C)C)C(C)C)c2ccccc2)c1 [Tolterodine ER, tolterodine, reference compound]
- Average daily number of urgency episodes, Mean (SD) (Week 8): 5.60 (4.266)
- Average volume voided per micturition, Active - Placebo LS Mean Difference (Week 8): 14.4 mL
- Average volume voided per micturition, Week 8 Mean (SD) (Week 8): 162.9 (74.46) mL
- Change from Baseline in Average Daily Number of Total Incontinence, LS Mean (SE) (Week 8): −1.8 (0.16)
- Change from baseline in average daily number of urgency episodes, LS Mean (Week 8): −2.2
- Change from baseline in average volume voided per micturition, LS Mean (SE) (Week 8): 17.5 (3.44) mL
- Estimated Incidence of Subjects with 50% Decrease from Baseline (urgency episodes) (Week 8): 30.9
- Estimated Incidence of Subjects with 100% Decrease from Baseline (UUI episodes) (Week 8): 15.8
- Total Incontinence, Active - Placebo LS Mean Difference (SE) (Week 8): −0.5 (0.17)
- Urgency episodes, Active - Placebo LS Mean Difference (Week 8): −0.6
- First 50% Reduction in Urgency Episodes, Events [1]: 127/290
- First 100% Reduction in UUI Episodes, Events [1]: 49/270
- Average Daily Number of Total Incontinence, Mean (SD) (Week 12): 1.89 (2.353)
- Average daily number of urgency episodes, Mean (SD) (Week 12): 5.36 (4.425)
- Average volume voided per micturition, Active - Placebo LS Mean Difference (Week 12): 13.3 mL
- Average volume voided per micturition, Week 12 Mean (SD) (Week 12): 162.1 (72.96) mL
- Change from Baseline in Average Daily Number of Total Incontinence, LS Mean (SE) (Week 12): −2.0 (0.16)
- Change from baseline in average daily number of urgency episodes, LS Mean (Week 12): −2.5
- Change from baseline in average volume voided per micturition, LS Mean (SE) (Week 12): 15.5 (3.52) mL
- Estimated Incidence of Subjects with 50% Decrease from Baseline (urgency episodes) (Week 12): 40.5
- Estimated Incidence of Subjects with 100% Decrease from Baseline (UUI episodes) (Week 12): 24.4
- Total Incontinence, Active - Placebo LS Mean Difference (SE) (Week 12): −0.5 (0.17)
- Urgency episodes, Active - Placebo LS Mean Difference (Week 12): −0.4
- Micturitions: Week 12 CFB Mean (descriptive statistics) (Week 12, <65 yrs): −1.99
- UUI: Week 12 CFB Mean (descriptive statistics) (Week 12, African American): −1.42
- UUI: Week 12 CFB Median (Week 12, African American): −1.43
- Micturitions: Week 12 CFB LS Mean (95% CI) (Week 12, Age < 65 years): −1.8
- UUI: Week 12 CFB LS Mean (95% CI) (Week 12, Age < 65 years): −1.8
- UUI: Week 12 CFB Mean (descriptive statistics) (Week 12, Age < 65 years): −1.72
- Micturitions: Week 12 CFB LS Mean (95% CI) (Week 12, Age ≥ 65 years): −1.3
- UUI: Week 12 CFB LS Mean (95% CI) (Week 12, Age ≥ 65 years): −1.8
- UUI: Week 12 CFB Mean (descriptive statistics) (Week 12, Age ≥ 65 years): −1.80
- Micturitions: Week 12 CFB LS Mean (95% CI) [2]: −1.5
- UUI: Week 12 CFB LS Mean (95% CI) [2]: −2.0
- UUI: Week 12 CFB Mean (descriptive statistics) (Week 12, Asian): −0.21
- UUI: Week 12 CFB Median (Week 12, Asian): −0.14
- Micturitions: Week 12 CFB LS Mean (95% CI) (Week 12, Females): −1.7
- Micturitions: Week 12 CFB Mean (descriptive statistics) (Week 12, Females): −1.88
- UUI: Week 12 CFB LS Mean (95% CI) (Week 12, Females): −1.8
- UUI: Week 12 CFB Mean (descriptive statistics) (Week 12, Females): −1.71
- Micturitions: Week 12 CFB LS Mean (95% CI) (Week 12, Males): −1.0
- Micturitions: Week 12 CFB Mean (descriptive statistics) (Week 12, Males): −1.28
- UUI: Week 12 CFB LS Mean (95% CI) (Week 12, Males): −2.0
- UUI: Week 12 CFB Mean (descriptive statistics) (Week 12, Males): −2.08
- Micturitions: Week 12 CFB Mean (descriptive statistics) (Week 12, Males with BPH): −1.25
- UUI: Week 12 CFB Mean (descriptive statistics) (Week 12, Males with BPH): −2.15
- Micturitions: Week 12 CFB Mean (descriptive statistics) (Week 12, Males without BPH): −1.29
- UUI: Week 12 CFB Mean (descriptive statistics) (Week 12, Males without BPH): −2.05
- Micturitions: Week 12 CFB Mean (descriptive statistics) [3]: −1.82
- UUI: Week 12 CFB Mean (descriptive statistics) [3]: −1.88
- Micturitions: Week 12 CFB Mean (descriptive statistics) [4]: −1.83
- UUI: Week 12 CFB Mean (descriptive statistics) [4]: −1.83
- Micturitions: Week 12 CFB LS Mean (95% CI) (Week 12, Non-White): −1.3
- Micturitions: Week 12 CFB Mean (descriptive statistics) (Week 12, Non-White): −1.42
- UUI: Week 12 CFB LS Mean (95% CI) (Week 12, Non-White): −1.3
- UUI: Week 12 CFB Mean (descriptive statistics) (Week 12, Non-White): −1.11
- UUI: Week 12 CFB Median (Week 12, Non-White): −1.00
- Micturitions: Week 12 CFB LS Mean (95% CI) (Week 12, Overall): −1.6
- Micturitions: Week 12 CFB Mean (descriptive statistics) (Week 12, Overall): −1.78
- UUI: Week 12 CFB LS Mean (95% CI) (Week 12, Overall): −1.8
- UUI: Week 12 CFB Mean (descriptive statistics) (Week 12, Overall): −1.75
- Micturitions: Week 12 CFB Mean (descriptive statistics) [5]: −1.52
- UUI: Week 12 CFB Mean (descriptive statistics) [5]: −0.98
- Micturitions: Week 12 CFB Mean (descriptive statistics) [6]: −1.30
- UUI: Week 12 CFB Mean (descriptive statistics) [6]: −0.65
- Micturitions: Week 12 CFB LS Mean (95% CI) (Week 12, Region: Non-US): −1.0
- Micturitions: Week 12 CFB Mean (descriptive statistics) (Week 12, Region: Non-US): −1.38
- UUI: Week 12 CFB LS Mean (95% CI) (Week 12, Region: Non-US): −2.0
- UUI: Week 12 CFB Mean (descriptive statistics) (Week 12, Region: Non-US): −2.26
- Micturitions: Week 12 CFB LS Mean (95% CI) (Week 12, Region: US): −1.7
- Micturitions: Week 12 CFB Mean (descriptive statistics) (Week 12, Region: US): −1.83
- UUI: Week 12 CFB LS Mean (95% CI) (Week 12, Region: US): −1.7
- UUI: Week 12 CFB Mean (descriptive statistics) (Week 12, Region: US): −1.69
- Micturitions: Week 12 CFB LS Mean (95% CI) (Week 12, White): −1.6
- Micturitions: Week 12 CFB Mean (descriptive statistics) (Week 12, White): −1.90
- UUI: Week 12 CFB LS Mean (95% CI) (Week 12, White): −1.9
- UUI: Week 12 CFB Mean (descriptive statistics) (Week 12, White): −1.92
- UUI: Week 12 CFB Median (Week 12, White): −1.57
